Experimental data reported in PMC4368482 (Nature, 2014).

Target: T1, tyrosyl tRNA synthetase (TyrRS) (Homo sapiens, UniProt P54577)
T1 sequence (P54577 1-528): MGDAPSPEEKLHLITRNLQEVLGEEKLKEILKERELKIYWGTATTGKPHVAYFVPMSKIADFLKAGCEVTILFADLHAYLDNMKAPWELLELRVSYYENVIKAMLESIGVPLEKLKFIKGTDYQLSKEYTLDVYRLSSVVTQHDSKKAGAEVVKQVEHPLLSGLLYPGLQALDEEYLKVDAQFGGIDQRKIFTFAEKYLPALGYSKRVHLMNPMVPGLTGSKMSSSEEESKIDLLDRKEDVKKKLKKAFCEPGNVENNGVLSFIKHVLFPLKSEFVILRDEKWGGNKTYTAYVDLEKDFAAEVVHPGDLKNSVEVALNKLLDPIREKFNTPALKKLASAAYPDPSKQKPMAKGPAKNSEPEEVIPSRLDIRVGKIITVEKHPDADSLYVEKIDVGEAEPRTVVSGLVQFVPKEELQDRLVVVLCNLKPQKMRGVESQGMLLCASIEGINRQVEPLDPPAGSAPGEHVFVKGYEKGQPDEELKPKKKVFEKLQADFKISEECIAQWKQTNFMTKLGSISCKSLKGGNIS
Assay: X-ray co-crystal structure
Assay type: biochemical

Ki: 22 µM
Structure (SMILES): Oc1ccc(/C=C/c2cc(O)cc(O)c2)cc1 [RSV, resveratrol]
